Results published in patent US20120252825A1, “BENEFICIAL EFFECTS OF COMBINATION THERAPY ON CHOLESTEROL” (Pfizer Inc., priority 2011, published 2012).
Read-outs that look alike come from different tables or passages of the source.

Columns and labels:
[1] = relative to Enrollment Visit
From the text: Table 2 presents the ACR20 (American College of Rheumatology 20% improvement in response rate) response rates (relative to Enrollment Visit, i.e., pre-TOFACITINIB treatment).

triglycerides = conditions: FIG. 5
Apolipoprotein B = conditions: FIG. 4
total cholesterol = conditions: FIG. 6
LDL-C = conditions: for Percent Change from Baseline in LDL, adjusted mean: TOFACITINIB 10 mg BID
HDL = conditions: FIG. 2
Apolipoprotein A-1 = conditions: FIG. 3
[2] = following introduction of TOFACITINIB treatment
[3] = after Enrollment Visit (introduction of TOFACITINIB treatment)

C[C@@H]1CCN(C(=O)CC#N)C[C@@H]1N(C)c1ncnc2[nH]ccc12 [TOFACITINIB, 3-{(3R,4R)-4-Methyl-3-[methyl-(7H-pyrrolo-[2,3-d]pyrimidin-4-yl)-amino]-piperidin-1-yl}-3-oxo-propionitrile]
ACR20 response rate, % of responders ([1]; Baseline (after 6 week treatment of TOFACITINIB 10 mg BID), atorvastatin group before add-on): 76.0% | ACR20 response, number of responders ([1]; Baseline (after 6 week treatment of TOFACITINIB 10 mg BID), atorvastatin group before add-on, N 50): 38 | ACR20 response rate, % of responders ([1]; Baseline (after 6 week treatment of TOFACITINIB 10 mg BID), placebo group before add-on): 76.6% | ACR20 response, number of responders ([1]; Baseline (after 6 week treatment of TOFACITINIB 10 mg BID), placebo group before add-on, N 47): 36 | ACR20 response rate, % of responders ([1]; Week 12, after 6 week treatment of atorvastatin or placebo added on to TOFACITINIB 10 mg BID): 65.2% | ACR20 response, number of responders ([1]; Week 12, after 6 week treatment of atorvastatin or placebo added on to TOFACITINIB 10 mg BID, N 46): 30 | triglycerides level, trend (triglycerides; after Baseline Visit): increases continue | triglycerides level, trend (triglycerides; [2]): increase | Apolipoprotein B level, trend (Apolipoprotein B; after Baseline Visit): slightly increasing trend | median Apolipoprotein B level, trend (Apolipoprotein B; [3]): increase | total cholesterol level, trend (total cholesterol; after Baseline Visit): slightly increasing trend | median total cholesterol level, trend (total cholesterol; [3]): increase | Percent Change from Baseline in LDL, adjusted mean (LDL-C; Week 10): 5.5% | Percent Change from Baseline in LDL, adjusted mean (LDL-C; Week 12 (primary endpoint)): 5.8% | baseline LDL-C mean (LDL-C; after 6 weeks treatment with TOFACITINIB, placebo/TOFACITINIB treatment group, before placebo was added): 138.26 mg/dL | LDL level, trend (LDL-C; after Baseline Visit, FIG. 1): slightly increasing trend | median LDL-C level, trend (LDL-C; after Enrollment Visit (introduction of TOFACITINIB treatment), FIG. 1): increase | LDL-C mean (LDL-C; week 12, 6 weeks following randomization): 142.61 mg/dL | HDL level, trend (HDL; after Baseline Visit): slight upward trend | HDL level, trend (HDL; following the Enrollment Visit): increase | Apolipoprotein A-1 level, trend (Apolipoprotein A-1; after Baseline Visit): slightly trend upward | Apolipoprotein A-1 level, trend (Apolipoprotein A-1; [2]): increases
